This data set is described as follows: xn = mol fraction of the nth substance listed. As to conditions: 298.2 K, 100 kPa, Liquid, Pycnometric method.

Numbers after ± are expanded uncertainties.

`Cc1ccc(-c2ncc(Cl)cc2-c2ccc(S(C)(=O)=O)cc2)cn1` [etoricoxib] + CC(O)CO: the mass density (x1 = 0.06047) came to 1059.7 ± 1.3 kg/m3.

As for `Cc1ccc(-c2ncc(Cl)cc2-c2ccc(S(C)(=O)=O)cc2)cn1` [etoricoxib] + CO, the mass density (x1 = 0.03786) is recorded as 805 ± 0.9 kg/m3. Take `Cc1ccc(-c2ncc(Cl)cc2-c2ccc(S(C)(=O)=O)cc2)cn1` [etoricoxib] + O: the mass density (x1 = 1.58e-05) came out at 994.8 ± 1 kg/m3.

In the case of `Cc1ccc(-c2ncc(Cl)cc2-c2ccc(S(C)(=O)=O)cc2)cn1` [etoricoxib] + OCC(O)CO, the mass density (x1 = 0.05656) came out at 1298 ± 1.6 kg/m3.

As a reminder, the mass density is the mass of a sample divided by its volume.

The record behind these values is the NIST ThermoML archive (doi:10.1021/acs.jced.7b00709).
